Experiments:
PRMT5 [1] = target: T1, PRMT5 (Homo sapiens, UniProt O14744); assay: PRMT5 IC50 assay in the presence of SAM as cofactor; type: biochemical
T1 construct: purchased Viva (custom protein)
Method in brief: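 Values reflect IC50 (μM) on human PRMT5 under three cofactor states. Selectivity is derived as the quotient of SAM-state Ki over MTA-state Ki, with each Ki obtained from its IC50.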

PRMT5 [2] = target: T1, PRMT5; assay: PRMT5 IC50 assay with no cofactor; type: biochemical
Method in brief: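 Human PRMT5 inhibition, IC50 in μM; cofactor varied (SAM / MTA / none).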

PRMT5 [3] = target: T1, PRMT5; assay: PRMT5 IC50 assay in the presence of MTA as cofactor; type: biochemical; conditions: for IC50: PRMT5, MTA as cofactor; for SAM/MTA Ratio: ratio between the Ki in the presence of SAM and the Ki in the presence of MTA
Method in brief: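 IC50 values were measured against human PRMT5 with SAM, with MTA, or with no cofactor. Ki was derived from IC50 as Ki=IC50/1.5 with SAM and Ki=IC50/13.5 with MTA, and the Ki(SAM)/Ki(MTA) ratio was then taken.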

HAP1 MTAP-intact = assay: SDMA in-cell western assay, HAP1 MTAP-intact cell line; type: cell-based; conditions: Homo sapiens
Method in brief: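 Potency reflects cellular SDMA reduction, detected by in-cell western, in HAP1 cells with or without MTAP (endogenous expression versus null).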

HAP1 MTAP-deleted = assay: SDMA in-cell western assay, HAP1 MTAP-deleted cell line; type: cell-based; conditions: for IC50: Homo sapiens, HAP1 MTAP-deleted cell line; for MTAP Intact/Deleted Ratio: IC50 ratio HAP1 MTAP-intact / HAP1 MTAP-deleted
Method in brief: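 These are IC50 values from an in-cell western measuring SDMA. The HAP1 cells used carry no MTAP, in contrast to the isogenic partner line with endogenous MTAP expression.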

T1 sequence (O14744 whole entry): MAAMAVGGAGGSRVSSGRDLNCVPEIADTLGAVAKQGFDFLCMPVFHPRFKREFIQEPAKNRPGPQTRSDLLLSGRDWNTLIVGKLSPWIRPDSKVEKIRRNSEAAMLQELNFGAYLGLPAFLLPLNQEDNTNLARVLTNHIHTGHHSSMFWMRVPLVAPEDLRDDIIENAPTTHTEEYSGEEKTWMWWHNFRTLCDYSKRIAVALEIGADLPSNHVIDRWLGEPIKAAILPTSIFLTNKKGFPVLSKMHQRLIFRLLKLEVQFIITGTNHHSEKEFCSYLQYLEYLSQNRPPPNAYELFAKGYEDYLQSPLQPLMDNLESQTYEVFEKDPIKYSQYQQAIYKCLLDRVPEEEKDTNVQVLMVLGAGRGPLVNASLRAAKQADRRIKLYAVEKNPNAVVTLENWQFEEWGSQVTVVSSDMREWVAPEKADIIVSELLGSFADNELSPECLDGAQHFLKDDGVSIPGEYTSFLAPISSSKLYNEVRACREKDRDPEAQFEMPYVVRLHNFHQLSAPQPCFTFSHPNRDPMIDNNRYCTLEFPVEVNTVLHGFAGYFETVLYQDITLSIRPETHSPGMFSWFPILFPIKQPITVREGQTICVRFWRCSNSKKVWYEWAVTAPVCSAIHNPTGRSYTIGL
T1 sequence (Q9BQA1 whole entry partner): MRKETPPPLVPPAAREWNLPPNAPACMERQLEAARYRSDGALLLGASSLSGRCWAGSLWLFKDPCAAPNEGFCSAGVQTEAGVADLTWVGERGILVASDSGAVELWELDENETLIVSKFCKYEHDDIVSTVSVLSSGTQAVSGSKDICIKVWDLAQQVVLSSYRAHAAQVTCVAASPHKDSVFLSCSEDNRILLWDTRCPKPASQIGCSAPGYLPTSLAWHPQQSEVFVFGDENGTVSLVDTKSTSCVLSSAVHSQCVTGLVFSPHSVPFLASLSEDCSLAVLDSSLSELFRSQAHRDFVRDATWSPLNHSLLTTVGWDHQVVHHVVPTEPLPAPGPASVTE

| SMILES | IC50 (PRMT5 [1]) | IC50 (PRMT5 [2]) | IC50 (PRMT5 [3]) | IC50 (HAP1 MTAP-intact) | IC50 (HAP1 MTAP-deleted) | SAM/MTA Ratio (PRMT5 [3]) | MTAP Intact/Deleted Ratio (HAP1 MTAP-deleted) |
| --- | --- | --- | --- | --- | --- | --- | --- |
| CC(=O)N1CCN(c2cc(C(=O)NC[C@H](O)CN3CCc4cc(OCc5cnco5)ccc4C3)cc(NC3CCC3)n2)CC1 [Compound 497, (S)-2-(4-acetylpiperazin-1-yl)-6-(cyclobutylamino)-N-(2-hydroxy-3-(6-(oxazol-5-ylmethoxy)-3N-dihydroisoquinolin-2(1H)-yl)propyl)isonicotinamide] | 50 to 500 nM | 500 to 5000 nM | 50 to 500 nM | 1000 to 10000 nM | < 1000 nM | A (a Ki ratio greater than or equal to 10 fold between the Ki in the presence of SAM and the Ki in the presence of MTA) | C* (an IC50 ratio of less than 3 fold between the IC50 in the HAP1 MTAP-intact cell line and the HAP1 MTAP-deleted cell line) |
| COc1ccc(C(=O)N2CCc3cc(C(=O)NC[C@H](O)CN4CCc5cc(OCc6ocnc6C)ccc5C4)ccc3C2)cc1 [Compound 498, (S)—N-(2-hydroxy-3-(6-((4-methyloxazol-5-yl)methoxy)-3,4-dihydroisoquinolin-2(1H)-yl)propyl)-2-(4-methoxybenzoyl)-1,2,3,4-tetrahydroisoquinoline-6-carboxamide] | 50 to 500 nM | 500 to 5000 nM | 50 to 500 nM | 1000 to 10000 nM | < 1000 nM | A (a Ki ratio greater than or equal to 10 fold between the Ki in the presence of SAM and the Ki in the presence of MTA) | B* (an IC50 ratio greater than or equal to 3 fold but lower than 10 fold between the IC50 in the HAP1 MTAP-intact cell line and the HAP1 MTAP-deleted cell line) |
| CC(=O)N1CCN(c2nc(NC3COC3)cc(C(=O)NC[C@H](O)CN3CCc4c(ccc(OCc5ocnc5C)c4C)C3)n2)CC1 [Compound 499, 2-(4-acetylpiperazin-1-yl)-N-[(2S)-2-hydroxy-3-{5-methyl-6-[(4-methyl-1,3-oxazol-5-yl)methoxy]-1,2,3,4-tetrahydroisoquinolin-2-yl}propyl]-6-[(oxetan-3-yl)amino]pyrimidine-4-carboxamide] | 500 to 5000 nM | ≥ 5000 nM | 50 to 500 nM | ≥ 10000 nM | ≥ 10000 nM | A (a Ki ratio greater than or equal to 10 fold between the Ki in the presence of SAM and the Ki in the presence of MTA) | C* (an IC50 ratio of less than 3 fold between the IC50 in the HAP1 MTAP-intact cell line and the HAP1 MTAP-deleted cell line) |
| CC(=O)N1CCN(c2cc(C(=O)NC[C@H](O)CN3CCc4c(ccc(OCc5ocnc5C)c4C)C3)cc(NC3CCC3)n2)CC1 [Compound 502, 2-(4-acetylpiperazin-1-yl)-6-(cyclobutylamino)-N-[(2S)-2-hydroxy-3-{5-methyl-6-[(4-methyl-1,3-oxazol-5-yl)methoxy]-1,2,3,4-tetrahydroisoquinolin-2-yl}propyl]pyridine-4-carboxamide] | 50 to 500 nM | 500 to 5000 nM | 50 to 500 nM | 1000 to 10000 nM | < 1000 nM | A (a Ki ratio greater than or equal to 10 fold between the Ki in the presence of SAM and the Ki in the presence of MTA) | A* (an IC50 ratio greater than or equal to 10 fold between the IC50 in the HAP1 MTAP-intact cell line and the HAP1 MTAP-deleted cell line) |
| Cc1ncoc1COc1ccc2c(c1C)CCN(C[C@@H](O)CNC(=O)c1cc(NC3CCC3)nc(N3CCN(C)CC3)c1)C2 [Compound 503, 2-(cyclobutylamino)-N-[(2S)-2-hydroxy-3-{5-methyl-6-[(4-methyl-1,3-oxazol-5-yl)methoxy]-1,2,3,4-tetrahydroisoquinolin-2-yl}propyl]-6-(4-methylpiperazin-1-yl)pyridine-4-carboxamide] | 50 to 500 nM | 500 to 5000 nM | 50 to 500 nM | ≥ 10000 nM | < 1000 nM | A (a Ki ratio greater than or equal to 10 fold between the Ki in the presence of SAM and the Ki in the presence of MTA) | A* (an IC50 ratio greater than or equal to 10 fold between the IC50 in the HAP1 MTAP-intact cell line and the HAP1 MTAP-deleted cell line) |

The next lines start with results.

| IC50 (PRMT5 [1]) | IC50 (PRMT5 [2]) | IC50 (PRMT5 [3]) | IC50 (HAP1 MTAP-intact) | IC50 (HAP1 MTAP-deleted) | SMILES | SAM/MTA Ratio (PRMT5 [3]) | MTAP Intact/Deleted Ratio (HAP1 MTAP-deleted) |
| --- | --- | --- | --- | --- | --- | --- | --- |
| 50 to 500 nM | ≥ 5000 nM | 50 to 500 nM | 1000 to 10000 nM | 1000 to 10000 nM | Cc1ncoc1COc1ccc2c(c1)CCN(C[C@@H](O)CNC(=O)c1cc(NC3COC3)nc(N3CCN(C(C)C)CC3)n1)C2 [Compound 492, N-[(2S)-2-hydroxy-3-{6-[(4-methyl-1,3-oxazol-5-yl)methoxy]-1,2,3,4-tetrahydroisoquinolin-2-yl}propyl]-6-[(oxetan-3-yl)amino]-2-[4-(propan-2-yl)piperazin-1-yl]pyrimidine-4-carboxamide] | A (a Ki ratio greater than or equal to 10 fold between the Ki in the presence of SAM and the Ki in the presence of MTA) | C* (an IC50 ratio of less than 3 fold between the IC50 in the HAP1 MTAP-intact cell line and the HAP1 MTAP-deleted cell line) |
| 50 to 500 nM | 500 to 5000 nM | < 50 nM | 1000 to 10000 nM | < 1000 nM | Cc1ncoc1COc1ccc2c(c1)CCN(C[C@@H](O)CNC(=O)c1ccc3c(c1)CCN(C(=O)c1ccc(Br)cc1)C3)C2 [Compound 493] | A (a Ki ratio greater than or equal to 10 fold between the Ki in the presence of SAM and the Ki in the presence of MTA) | B* (an IC50 ratio greater than or equal to 3 fold but lower than 10 fold between the IC50 in the HAP1 MTAP-intact cell line and the HAP1 MTAP-deleted cell line) |
| 50 to 500 nM | 500 to 5000 nM | 50 to 500 nM | ≥ 10000 nM | 1000 to 10000 nM | Cc1c(OCc2cnco2)ccc2c1CCN(C[C@@H](O)CNC(=O)c1ccnc(NC3CCN(C(=O)C4CCC4)CC3)c1)C2 [Compound 494, (S)-2-((1-(cyclobutanecarbonyl)piperidin-4-yl)amino)-N-(2-hydroxy-3-(5-methyl-6-(oxazol-5-ylmethoxy)-3N-dihydroisoquinolin-2(1H)-yl)propyl)isonicotinamide] | A (a Ki ratio greater than or equal to 10 fold between the Ki in the presence of SAM and the Ki in the presence of MTA) | B* (an IC50 ratio greater than or equal to 3 fold but lower than 10 fold between the IC50 in the HAP1 MTAP-intact cell line and the HAP1 MTAP-deleted cell line) |
| 50 to 500 nM | 500 to 5000 nM | 50 to 500 nM | ≥ 10000 nM | ≥ 10000 nM | CCC(=O)N1CC(Nc2cc(C(=O)NC[C@H](O)CN3CCc4c(ccc(OCc5cnco5)c4C)C3)ccn2)C1 [Compound 495, (S)—N-(2-hydroxy-3-(5-methyl-6-(oxazol-5-ylmethoxy)-3,4-dihydroisoquinolin-2(1H)-yl)propyl)-2-((1-propionylazetidin-3-yl)amino)isonicotinamide] | A (a Ki ratio greater than or equal to 10 fold between the Ki in the presence of SAM and the Ki in the presence of MTA) | C* (an IC50 ratio of less than 3 fold between the IC50 in the HAP1 MTAP-intact cell line and the HAP1 MTAP-deleted cell line) |
| 50 to 500 nM | 500 to 5000 nM | 50 to 500 nM | ≥ 10000 nM | 1000 to 10000 nM | CCC(=O)N1CCC(Nc2cc(C(=O)NC[C@H](O)CN3CCc4c(ccc(OCc5cnco5)c4C)C3)ccn2)CC1 [Compound 496, (S)—N-(2-hydroxy-3-(5-methyl-6-(oxazol-5-ylmethoxy)-3N-dihydroisoquinolin-2(1H)-yl)propyl)-2-((1-propionylpiperidin-4-yl)amino)isonicotinamide] | A (a Ki ratio greater than or equal to 10 fold between the Ki in the presence of SAM and the Ki in the presence of MTA) | B* (an IC50 ratio greater than or equal to 3 fold but lower than 10 fold between the IC50 in the HAP1 MTAP-intact cell line and the HAP1 MTAP-deleted cell line) |
| 50 to 500 nM | 500 to 5000 nM | 50 to 500 nM | ≥ 10000 nM | < 1000 nM | Cc1ncoc1COc1ccc2c(c1C)CCN(C[C@@H](O)CNC(=O)c1cc(NC3CCC3)nc(OCCN(C)C)c1)C2 [Compound 500, 2-(cyclobutylamino)-6-[2-(dimethylamino)ethoxy]-N-[(2S)-2-hydroxy-3-{5-methyl-6-[(4-methyl-1,3-oxazol-5-yl)methoxy]-1,2,3,4-tetrahydroisoquinolin-2-yl}propyl]pyridine-4-carboxamide] | A (a Ki ratio greater than or equal to 10 fold between the Ki in the presence of SAM and the Ki in the presence of MTA) | A* (an IC50 ratio greater than or equal to 10 fold between the IC50 in the HAP1 MTAP-intact cell line and the HAP1 MTAP-deleted cell line) |
| 50 to 500 nM | ≥ 5000 nM | 50 to 500 nM | ≥ 10000 nM | ≥ 10000 nM | Cc1ncoc1COc1ccc2c(c1Cl)CCN(C[C@@H](O)CNC(=O)c1cc(NC3CCCCC3)ncn1)C2 [Compound 501, N-[(2S)-3-[5-chloro-6-[(4-methyl-1,3-oxazol-5-yl)methoxy]-1,2,3,4-tetrahydroisoquinolin-2-yl]-2-hydroxypropyl]-6-(cyclohexylamino)pyrimidine-4-carboxamide] | A (a Ki ratio greater than or equal to 10 fold between the Ki in the presence of SAM and the Ki in the presence of MTA) | C* (an IC50 ratio of less than 3 fold between the IC50 in the HAP1 MTAP-intact cell line and the HAP1 MTAP-deleted cell line) |
